The values that follow come from patent US8106004B2, “Methods of inhibiting tumor cell aggressiveness using the microenvironment of human embryonic stem cells” (Children's Memorial Hospital, priority 2006, dated 2012).

This series concerns Nodal. As to the kind of experiment: Nodal expression in C8161 cells (Western blot, real time RT-PCR). The format is cell-based, human. As to conditions: anti-Nodal Morpholino. As for the experimental part: A determination of the effects of H9 CMTX on Nodal expression in metastatic melanoma (C8161) and breast carcinoma (MDA-MB-231) cells was undertaken. […] Exposure to H9 CMTX similarly abrogates Nodal mRNA expression in the melanoma and breast carcinoma cells (FIG. 9C).
Protein lysates were prepared and quantified as previously described in Hess et al., 2001, Cancer Res. 61:3250-3255. Equal amounts of protein were separated by SDS-polyacrylamide gel electrophoresis under reducing conditions, and the resolved proteins were transferred onto Immobilon-P membranes (Millipore Corp., Bedford, Mass.). Membranes were blocked in 1% TBS, 0.1% Tween 20 (TBS-T) and 5% dry milk powder or 3% gelatin (for Nodal Westerns). Blots were incubated with anti-Nodal or anti-Lefty antibodies (Polyclonal rabbit anti-Nodal (H-110) 1:500 Santa Cruz Biotechnology, Santa Cruz, Calif.; Polyclonal goat anti-Lefty 1:500 R&D Systems, Minneapolis, Minn.), washed in TBS-T, and incubated with the appropriate horseradish peroxidase-labeled secondary antibody. Secondary antibodies were detected by enhanced chemiluminescence (Super Signal; Pierce, Rockford, Ill.) and exposure to autoradiography film (Molecular Technologies, St Louis, Mo.). Nodal protein was detected as two major bands at ˜48 and ˜35 kDa representing precursor and pro-Nodal respectively. Nodal often appeared as multiple bands, likely due to degradation of protein modifications. All experiments were done at least three times.
The derivation and phenotypic characteristics of the human melanoma cell lines have been previously described. Seftor, et. al., 2002, Clin. Experim. Metastas. 19:233-246; Seftor, et. al., 2005 Cancer Res. 65:10164-10169. The melanoma cell lines are maintained in RPMI 1640 medium (Invitrogen) supplemented with 10% fetal bovine serum (FBS, Gemini Bioproducts) and 0.1% gentamycin sulfate with the exception of C81-61 cells which are maintained in Ham's FIO medium supplemented with 15% FBS, 1X Mito+ (BD Bioscience) and gentamycin sulfate. […] The cultures are determined to be free of mycoplasma contamination using a PCR-based assay (Roche). […]

Take “MO^Nodal: FITC-conjugated anti-sense Morpholino to Nodal, 5′-AAGCAGCACCTCCAGCCCTTATATC-3′ [SEQ ID NO: 20] (all phosphorodiamidate morpholino (PMO); FITC conjugated, position not given here)”: the Nodal expression entry is listed as “down-regulation of Nodal”.
